Converted amounts (≈) assume the structure as drawn.
Tests used:
Format in all cases: functional
Staphylococcus aureus [1] = test: Antibacterial activity against Staphylococcus aureus ATCC 25923 after 24 hrs by agar dilution method; settings: ATCC 25923, 24 h
Staphylococcus aureus [2] = test: Antibacterial activity against methicillin-resistant Staphylococcus aureus 562 after 24 hrs by agar dilution method
Staphylococcus aureus [3] = test: Antibacterial activity against methicillin-resistant Staphylococcus aureus 33 after 24 hrs by agar dilution method
Enterococcus faecium = test: Antibacterial activity against vancomycin-resistant Enterococcus faecium 6A after 24 hrs by agar dilution method
Enterococcus faecalis = test: Antibacterial activity against Enterococcus faecalis ATCC 29212 after 24 hrs by agar dilution method; settings: ATCC 29212, 24 h
Streptococcus pyogenes = test: Antibacterial activity against Streptococcus pyogenes ATCC 19615 after 24 hrs by agar dilution method; settings: ATCC 19615, 24 h
Streptococcus pneumoniae = test: Antibacterial activity against Streptococcus pneumoniae ATCC 6303 after 24 hrs by agar dilution method; settings: ATCC 6303, 24 h
Staphylococcus aureus [4] = test: Antibacterial activity against methicillin-resistant Staphylococcus aureus 562 infected orally dosed Swiss albino mouse after 7 days; settings: po, 168 h
Staphylococcus aureus [5] = test: Antibacterial activity against methicillin-resistant Staphylococcus aureus 562 infected sc dosed Swiss albino mouse after 7 days; settings: 168 h
Haemophilus influenzae = test: Antibacterial activity against Haemophilus influenzae
Moraxella catarrhalis = test: Antibacterial activity against Moraxella catarrhalis
[6] = test system: Mycobacterium tuberculosis; test: Antibacterial activity against sensitive Mycobacterium tuberculosis

| Compound | MIC (Staphylococcus aureus [1]) | MIC (Staphylococcus aureus [2]) | MIC (Staphylococcus aureus [3]) | MIC (Enterococcus faecium) | MIC (Enterococcus faecalis) | MIC (Streptococcus pyogenes) | MIC (Streptococcus pneumoniae) | ED50 (Staphylococcus aureus [4]) | ED50 (Staphylococcus aureus [5]) | MIC50 (Haemophilus influenzae) | MIC50 (Moraxella catarrhalis) | MIC90 [6] |
| --- | --- | --- | --- | --- | --- | --- | --- | --- | --- | --- | --- | --- |
| CC(=O)NC[C@H]1CN(c2ccc(N3CCN(Cc4ccc([N+](=O)[O-])s4)CC3)c(F)c2)C(=O)O1 | 8 mg/L (≈ 16.8 µM) | 8 mg/L (≈ 16.8 µM) | 8 mg/L (≈ 16.8 µM) | 8 mg/L (≈ 16.8 µM) | 8 mg/L (≈ 16.8 µM) | 1 mg/L (≈ 2.09 µM) | 8 mg/L (≈ 16.8 µM) | > 25 mg/kg | – | – | – | – |
| CC(=O)NC[C@H]1CN(c2ccc(N3CCN(C(C)c4ccc([N+](=O)[O-])o4)CC3)c(F)c2)C(=O)O1 (stereo partly drawn) | 1 mg/L (≈ 2.1 µM) | 1 mg/L (≈ 2.1 µM) | 1 mg/L (≈ 2.1 µM) | 0.25 mg/L (≈ 0.526 µM) | 0.125 mg/L (≈ 0.263 µM) | 0.06 mg/L (≈ 0.126 µM) | 1 mg/L (≈ 2.1 µM) | 9.1 mg/kg | – | – | – | – |
| CC(=O)NC[C@H]1CN(c2ccc(N3CCN(c4ccc([N+](=O)[O-])o4)CC3)c(F)c2)C(=O)O1 | 16 mg/L (≈ 35.8 µM) | 16 mg/L (≈ 35.8 µM) | 8 mg/L (≈ 17.9 µM) | 8 mg/L (≈ 17.9 µM) | 8 mg/L (≈ 17.9 µM) | 4 mg/L (≈ 8.94 µM) | 4 mg/L (≈ 8.94 µM) | – | – | – | – | – |
| CC(=O)NC[C@H]1CN(c2ccc(N3CCN(C(=O)c4ccc([N+](=O)[O-])s4)CC3)c(F)c2)C(=O)O1 | 0.125 mg/L (≈ 0.254 µM) | 0.06 mg/L (≈ 0.122 µM) | 0.06 mg/L (≈ 0.122 µM) | 0.5 mg/L (≈ 1.02 µM) | 0.5 mg/L (≈ 1.02 µM) | 0.125 mg/L (≈ 0.254 µM) | 0.5 mg/L (≈ 1.02 µM) | 9.77 mg/kg | – | – | – | – |
| CC(=O)NC[C@H]1CN(c2ccc(N3CCN(Cc4ccc([N+](=O)[O-])o4)CC3)c(F)c2)C(=O)O1.Cl [RANBEZOLID CHLORIDE] | 1 mg/L | 1 mg/L | 2 mg/L | 2 mg/L | 2 mg/L | 0.125 mg/L | 0.125 mg/L | 4.33 mg/kg | – | – | – | – |
| CC(=O)NC[C@H]1CN(c2cc(F)c(N3CCN(c4ccc([N+](=O)[O-])s4)CC3)c(F)c2)C(=O)O1 | 0.25 mg/L (≈ 0.519 µM) | 0.25 mg/L (≈ 0.519 µM) | 0.25 mg/L (≈ 0.519 µM) | 0.25 mg/L (≈ 0.519 µM) | 0.25 mg/L (≈ 0.519 µM) | 0.5 mg/L (≈ 1.04 µM) | 0.5 mg/L (≈ 1.04 µM) | > 25 mg/kg | – | – | – | – |
| CC(=O)NC[C@H]1CN(c2ccc(N3CCN(c4ccc(C(C)=O)s4)CC3)c(F)c2)C(=O)O1 | > 16 mg/L | > 16 mg/L | > 16 mg/L | > 16 mg/L | > 16 mg/L | > 16 mg/L | > 16 mg/L | – | – | – | – | – |
| CC(=O)NC[C@H]1CN(c2ccc(N3CCN(C(=O)/C=C/c4ccc([N+](=O)[O-])o4)CC3)c(F)c2)C(=O)O1 | 0.5 mg/L (≈ 0.997 µM) | 0.25 mg/L (≈ 0.499 µM) | 0.25 mg/L (≈ 0.499 µM) | < 0.125 mg/L | 0.5 mg/L (≈ 0.997 µM) | < 0.125 mg/L | 0.5 mg/L (≈ 0.997 µM) | > 25 mg/kg | – | – | – | – |
| CC(=O)NC[C@H]1CN(c2ccc(N3CCN(c4ccc([N+](=O)[O-])s4)CC3)cc2)C(=O)O1 | 2 mg/L (≈ 4.49 µM) | 1 mg/L (≈ 2.24 µM) | 1 mg/L (≈ 2.24 µM) | 1 mg/L (≈ 2.24 µM) | 1 mg/L (≈ 2.24 µM) | 0.5 mg/L (≈ 1.12 µM) | 0.5 mg/L (≈ 1.12 µM) | – | – | – | – | – |
| CN[C@H](CC(C)C)C(=O)N[C@H]1C(=O)N[C@@H](CC(N)=O)C(=O)N[C@H]2C(=O)N[C@H]3C(=O)N[C@H](C(=O)N[C@H](C(=O)O)c4cc(O)cc(O)c4-c4cc3ccc4O)[C@H](O)c3ccc(c(Cl)c3)Oc3cc2cc(c3O[C@@H]2O[C@H](CO)[C@@H](O)[C@H](O)[C@H]2O[C@H]2C[C@](C)(N)[C@H](O)[C@H](C)O2)Oc2ccc(cc2Cl)[C@H]1O [VANCOMYCIN] | – | – | – | > 16 mg/L | – | – | 0.5 mg/L (≈ 0.345 µM) | – | 8.8 mg/kg | – | – | – |
| CC(=O)NC[C@H]1CN(c2ccc(N3CCOCC3)c(F)c2)C(=O)O1 [LINEZOLID] | – | – | – | 2 mg/L (≈ 5.93 µM) | – | 2 mg/L (≈ 5.93 µM) | – | 5.6 mg/kg | – | – | – | – |
| CC(=O)NC[C@H]1CN(c2ccc(N3CCN(c4ccc(C#N)s4)CC3)c(F)c2)C(=O)O1 | 4 mg/L (≈ 9.02 µM) | 2 mg/L (≈ 4.51 µM) | 2 mg/L (≈ 4.51 µM) | – | 2 mg/L (≈ 4.51 µM) | 0.25 mg/L (≈ 0.564 µM) | 0.5 mg/L (≈ 1.13 µM) | – | – | – | – | – |
| CC(=O)NC[C@H]1CN(c2ccc(N3CCN(C(=O)/C=C/c4ccc([N+](=O)[O-])s4)CC3)c(F)c2)C(=O)O1 | 0.5 mg/L (≈ 0.966 µM) | 1 mg/L (≈ 1.93 µM) | 0.5 mg/L (≈ 0.966 µM) | 0.5 mg/L (≈ 0.966 µM) | 1 mg/L (≈ 1.93 µM) | 0.5 mg/L (≈ 0.966 µM) | 1 mg/L (≈ 1.93 µM) | > 25 mg/kg | – | – | – | – |
| CC(=O)NC[C@H]1CN(c2ccc(N3CCN(C(=O)c4ccc([N+](=O)[O-])o4)CC3)c(F)c2)C(=O)O1 | 1 mg/L (≈ 2.1 µM) | – | 0.5 mg/L (≈ 1.05 µM) | 1 mg/L (≈ 2.1 µM) | 1 mg/L (≈ 2.1 µM) | 2 mg/L (≈ 4.21 µM) | 2 mg/L (≈ 4.21 µM) | 8.24 mg/kg | – | – | – | – |
| CC(=O)NC[C@H]1CN(c2ccc(N3CCN(C(C)c4ccc([N+](=O)[O-])s4)CC3)c(F)c2)C(=O)O1 (stereo partly drawn) | 0.5 mg/L (≈ 1.02 µM) | 0.5 mg/L (≈ 1.02 µM) | 0.5 mg/L (≈ 1.02 µM) | 0.5 mg/L (≈ 1.02 µM) | 0.5 mg/L (≈ 1.02 µM) | 2 mg/L (≈ 4.07 µM) | 2 mg/L (≈ 4.07 µM) | > 25 mg/kg | – | – | – | – |
| CC(=O)NC[C@H]1CN(c2ccc(N3CCN(c4ccc(C=O)s4)CC3)c(F)c2)C(=O)O1 | 1 mg/L (≈ 2.24 µM) | 0.5 mg/L (≈ 1.12 µM) | 0.5 mg/L (≈ 1.12 µM) | 1 mg/L (≈ 2.24 µM) | < 0.25 mg/L | 0.5 mg/L (≈ 1.12 µM) | 0.5 mg/L (≈ 1.12 µM) | > 25 mg/kg | – | – | – | – |
| CC(=O)NC[C@H]1CN(c2ccc(N3CCN(c4ccc([N+](=O)[O-])s4)CC3)c(F)c2)C(=O)O1 | 0.25 mg/L (≈ 0.539 µM) | 0.25 mg/L (≈ 0.539 µM) | 0.25 mg/L (≈ 0.539 µM) | 0.25 mg/L (≈ 0.539 µM) | 0.25 mg/L (≈ 0.539 µM) | 0.125 mg/L (≈ 0.27 µM) | 0.125 mg/L (≈ 0.27 µM) | 11.2 mg/kg | – | 8 mg/L (≈ 17.3 µM) | 2 mg/L (≈ 4.32 µM) | 0.25 mg/L (≈ 0.539 µM) |

— ChEMBL document CHEMBL1138308, “Synthesis and antibacterial activity of potent heterocyclic oxazolidinones and the identification of RBx 8700” (2007)
